In patent US20250009689A1, “GASTRO-RETENTIVE ORAL DOSAGE UNIT CONTAINING A LOCAL ANAESTHETIC” (OREXA B.V., priority 2021, published 2025):
Marks after values point to notes of the source that are not given here.

Legend:
[1] = tested on: fundus strips (stomach muscularis); assay: Fundus strip length after acetylcholine-induced contraction; parameters: species or system domestic pigs; settings: for Strip length (as percentage of baseline): 70 mg/L + acetylcholine 10^-4 M, 37° C.
Experimental: Within the gastro-intestinal tract, local circuits play a role in the regulation of food intake and transport. Mechanical extension of the stomach as a result of food intake activates stretch receptors (neurons) which in turn induces satiety signals. The pharmacology of stretch receptors can be analyzed in fundus strip preparations. Fresh stomach tissue (0-1 h after slaughter) was collected from routinely slaughtered domestic pigs. The fundus region of the stomach was removed and washed with cold saline (0.9% NaCl) solution. Tissue was submerged in clean cold saline and transported to the laboratory (transport time 30 min.). The mucosa and submucosa were removed from the muscularis (muscle layer). The muscularis was cut along the longitudinal muscle fibres in strips of approximately 1 by 5 cm. The strips were incubated for 15 min in a 37° C. saline solution. Thereafter, fundus strips were placed vertically in a transparent container, kept at 37° C. Stretching was ensured by a 5 g weight at the bottom of the strip. Test solutions were added into the container. Acetylcholine (10^−4M) exposure was used to induce a contraction of the fundus tissue. Pictures were taken at 0, 5, 10, 15, 30, 45 and 60 minutes after the start of the experiment with a digital camera. The length of the strips was measured by a blinded assessor (unknowing of the treatment) using Photoshop software (Adobe).

[2] = tested on: fundus strips (stomach muscularis); assay: Acid sensitivity of lidocaine: acetic acid pre-exposure, then fundus strip experiment; parameters: species or system domestic pigs
Experimental: Fresh stomach tissue (0-1 h after slaughter) was collected from routinely slaughtered domestic pigs. The fundus region of the stomach was removed and washed with cold saline (0.9% NaCl) solution. Tissue was submerged in clean cold saline and transported to the laboratory (transport time 30 min.).
The mucosa and submucosa were removed from the muscularis (muscle layer). The muscularis was cut along the longitudinal muscle fibres in strips of approximately 1 by 5 cm. The strips were incubated for 15 min in a 37° C. saline solution.
Thereafter, fundus strips were placed vertically in a transparent container, kept at 37° C. Stretching was ensured by a 5 g weight at the bottom of the strip. Test solutions were added into the container. Acetylcholine (10^−4M) exposure was used to induce a contraction of the fundus tissue. Pictures were taken at 0, 5, 10, 15, 30, 45 and 60 minutes after the start of the experiment with a digital camera. The length of the strips was measured by a blinded assessor (unknowing of the treatment) using Photoshop software (Adobe). Values were expressed as percentage of baseline (t=0 min).
The acid sensitivity of lidocaine was determined by exposing lidocaine to acetic acid (pH 2.5) for 1, 5 and 15 minutes before carrying out experiments on fundus strips, as in Example 5.

## CCCNC(C)C(=O)Nc1ccccc1C (centres unmarked) [Prilocaine, prilocaine]
[1]; time 0 min (baseline)
  Strip length (as percentage of baseline): 100 percentage of baseline
[1]; time 5 min
  Strip length (as percentage of baseline): 105.1* percentage of baseline
[1]; time 10 min
  Strip length (as percentage of baseline): 105.8** percentage of baseline
[1]; time 15 min
  Strip length (as percentage of baseline): 106.2** percentage of baseline
[1]; time 30 min
  Strip length (as percentage of baseline): 106.3** percentage of baseline
[1]; time 45 min
  Strip length (as percentage of baseline): 104.1* percentage of baseline
[1]; time 60 min
  Strip length (as percentage of baseline): 100.2* percentage of baseline

## CCOC(=O)c1ccc(N)cc1 [Benzocaine, benzocaine]
[1]; time 0 min (baseline)
  Strip length (as percentage of baseline): 100 percentage of baseline
[1]; time 5 min
  Strip length (as percentage of baseline): 102.7* percentage of baseline
[1]; time 10 min
  Strip length (as percentage of baseline): 102.3* percentage of baseline
[1]; time 15 min
  Strip length (as percentage of baseline): 102.4** percentage of baseline
[1]; time 30 min
  Strip length (as percentage of baseline): 101.5* percentage of baseline
[1]; time 45 min
  Strip length (as percentage of baseline): 101.3** percentage of baseline
[1]; time 60 min
  Strip length (as percentage of baseline): 101.3** percentage of baseline

## CN(C(=O)CN(CCO)CC(=O)N(C)C(C)(C)Cc1ccccc1)C(C)(C)Cc1ccccc1 [Oxethazaine]
[1]; time 0 min (baseline)
  Strip length (as percentage of baseline): 100 percentage of baseline
[1]; time 5 min
  Strip length (as percentage of baseline): 104.5 percentage of baseline
[1]; time 10 min
  Strip length (as percentage of baseline): 104.8* percentage of baseline
[1]; time 15 min
  Strip length (as percentage of baseline): 104.3* percentage of baseline
[1]; time 30 min
  Strip length (as percentage of baseline): 101.3 percentage of baseline
[1]; time 45 min
  Strip length (as percentage of baseline): 98.2 percentage of baseline
[1]; time 60 min
  Strip length (as percentage of baseline): 94.6 percentage of baseline

## CCCCN1CCCCC1C(=O)Nc1c(C)cccc1C (centres unmarked) [Bupivacaine, bupivacaine]
[1]; time 0 min (baseline)
  Strip length (as percentage of baseline): 100 percentage of baseline
[1]; time 5 min
  Strip length (as percentage of baseline): 106.4*** percentage of baseline
[1]; time 10 min
  Strip length (as percentage of baseline): 107.1*** percentage of baseline
[1]; time 15 min
  Strip length (as percentage of baseline): 107.0*** percentage of baseline
[1]; time 30 min
  Strip length (as percentage of baseline): 106.8*** percentage of baseline
[1]; time 45 min
  Strip length (as percentage of baseline): 104.9*** percentage of baseline
[1]; time 60 min
  Strip length (as percentage of baseline): 101.9*** percentage of baseline

## CCN(CC)CC(=O)Nc1c(C)cccc1C [Lidocaine, lidocaine]
[2]; acetic acid pH 2.5, conclusion in words
  Acid sensitivity (activity after exposure to low pH): inactivated at low pH
[2]; acid exposure time 1 min, conclusion in words
  Activity on acetylcholine induced contraction after shortest acid exposure: remains active
[2]; lidocaine exposed 1 min. to acetic acid pH 2.5, time 0 min (baseline)
  Strip length (percentage of baseline): 100 percentage of baseline
[2]; lidocaine exposed 1 min. to acetic acid pH 2.5, time 5 min
  Strip length (percentage of baseline): 114.9 percentage of baseline
[2]; lidocaine exposed 1 min. to acetic acid pH 2.5, time 10 min
  Strip length (percentage of baseline): 115.8 percentage of baseline
[2]; lidocaine exposed 1 min. to acetic acid pH 2.5, time 15 min
  Strip length (percentage of baseline): 116.7 percentage of baseline
[2]; lidocaine exposed 1 min. to acetic acid pH 2.5, time 30 min
  Strip length (percentage of baseline): 116.2* percentage of baseline
[2]; lidocaine exposed 1 min. to acetic acid pH 2.5, time 45 min
  Strip length (percentage of baseline): 115.0* percentage of baseline
[2]; lidocaine exposed 1 min. to acetic acid pH 2.5, time 60 min
  Strip length (percentage of baseline): 113.6* percentage of baseline
[2]; lidocaine exposed 5 min. to acetic acid pH 2.5, time 0 min (baseline)
  Strip length (percentage of baseline): 100 percentage of baseline
[2]; lidocaine exposed 5 min. to acetic acid pH 2.5, time 5 min
  Strip length (percentage of baseline): 108.9 percentage of baseline
[2]; lidocaine exposed 5 min. to acetic acid pH 2.5, time 10 min
  Strip length (percentage of baseline): 108.3 percentage of baseline
[2]; lidocaine exposed 5 min. to acetic acid pH 2.5, time 15 min
  Strip length (percentage of baseline): 108.0 percentage of baseline
[2]; lidocaine exposed 5 min. to acetic acid pH 2.5, time 30 min
  Strip length (percentage of baseline): 108.0 percentage of baseline
[2]; lidocaine exposed 5 min. to acetic acid pH 2.5, time 45 min
  Strip length (percentage of baseline): 106.8 percentage of baseline
[2]; lidocaine exposed 5 min. to acetic acid pH 2.5, time 60 min
  Strip length (percentage of baseline): 104.9 percentage of baseline
[2]; lidocaine exposed 15 min. to acetic acid pH 2.5, time 0 min (baseline)
  Strip length (percentage of baseline): 100 percentage of baseline
[2]; lidocaine exposed 15 min. to acetic acid pH 2.5, time 5 min
  Strip length (percentage of baseline): 106.3 percentage of baseline
[2]; lidocaine exposed 15 min. to acetic acid pH 2.5, time 10 min
  Strip length (percentage of baseline): 105.9 percentage of baseline
[2]; lidocaine exposed 15 min. to acetic acid pH 2.5, time 15 min
  Strip length (percentage of baseline): 105.2 percentage of baseline
[2]; lidocaine exposed 15 min. to acetic acid pH 2.5, time 30 min
  Strip length (percentage of baseline): 102.4 percentage of baseline
[2]; lidocaine exposed 15 min. to acetic acid pH 2.5, time 45 min
  Strip length (percentage of baseline): 97.6 percentage of baseline
[2]; lidocaine exposed 15 min. to acetic acid pH 2.5, time 60 min
  Strip length (percentage of baseline): 93.8 percentage of baseline
[1]; time 0 min (baseline)
  Strip length (as percentage of baseline): 100 percentage of baseline
[1]; time 5 min
  Strip length (as percentage of baseline): 105.7** percentage of baseline
[1]; time 10 min
  Strip length (as percentage of baseline): 103.6* percentage of baseline
[1]; time 15 min
  Strip length (as percentage of baseline): 101.8* percentage of baseline
[1]; time 30 min
  Strip length (as percentage of baseline): 99.5 percentage of baseline
[1]; time 45 min
  Strip length (as percentage of baseline): 98.7 percentage of baseline
[1]; time 60 min
  Strip length (as percentage of baseline): 98.0* percentage of baseline
[1]; lidocaine 70 mg/L, conclusion in words
  Effect on contraction induced by acetylcholine: reversed
